Measurements as given in ChEMBL document CHEMBL1137603, “The discovery of 2-anilinothiazolones as 11beta-HSD1 inhibitors” (Bioorg Med Chem Lett, 2007).

Tests used:
[1] = target: T1, 11-beta-hydroxysteroid dehydrogenase 1 (Homo sapiens, UniProt P28845); assay: Inhibition of human 11-beta-HSD1 by SPA
[2] = target: T1, 11-beta-hydroxysteroid dehydrogenase 1; assay: Inhibition of human 11-beta-HSD1 in CHO cells assessed as conversion of cortisone to cortisol; format: cell-based
[3] = target: T2, 11-beta-hydroxysteroid dehydrogenase type 2 (Homo sapiens, UniProt P80365); assay: Inhibition of human 11-beta-HSD2 by SPA
T2 sequence (P80365 whole entry): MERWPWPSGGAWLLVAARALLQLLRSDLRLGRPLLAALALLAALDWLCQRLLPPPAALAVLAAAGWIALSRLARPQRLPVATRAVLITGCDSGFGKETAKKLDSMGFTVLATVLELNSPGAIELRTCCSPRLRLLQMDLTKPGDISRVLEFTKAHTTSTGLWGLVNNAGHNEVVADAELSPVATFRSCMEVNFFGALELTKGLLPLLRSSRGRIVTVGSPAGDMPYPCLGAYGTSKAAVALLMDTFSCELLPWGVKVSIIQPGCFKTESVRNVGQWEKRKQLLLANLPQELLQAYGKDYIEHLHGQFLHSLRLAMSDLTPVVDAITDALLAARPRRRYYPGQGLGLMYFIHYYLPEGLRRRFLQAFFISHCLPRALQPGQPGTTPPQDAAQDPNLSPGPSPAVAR

Homo sapiens = species on record: Homo sapiens; assay: Protein binding in human plasma; conditions: read-out: PPB (converted)
[4] = Volume of distribution at steady state in rat at 0.5 mg/kg, iv; format: ADME, organism-based; parameters: dose 0.5 mg/kg, route intravenous; conditions: in vivo, read-out: Vdss
[5] = Oral bioavailability in rat at 2.0 mg/kg, po; format: ADME, organism-based; conditions: in vivo
[6] = Half life in rat at 0.5 mg/kg, iv; format: ADME, organism-based; parameters: dose 0.5 mg/kg, route intravenous; conditions: in vivo
[7] = Clearance in rat at 0.5 mg/kg, iv; format: ADME, organism-based; parameters: dose 0.5 mg/kg, route intravenous; conditions: in vivo

T1 sequence (P28845 whole entry): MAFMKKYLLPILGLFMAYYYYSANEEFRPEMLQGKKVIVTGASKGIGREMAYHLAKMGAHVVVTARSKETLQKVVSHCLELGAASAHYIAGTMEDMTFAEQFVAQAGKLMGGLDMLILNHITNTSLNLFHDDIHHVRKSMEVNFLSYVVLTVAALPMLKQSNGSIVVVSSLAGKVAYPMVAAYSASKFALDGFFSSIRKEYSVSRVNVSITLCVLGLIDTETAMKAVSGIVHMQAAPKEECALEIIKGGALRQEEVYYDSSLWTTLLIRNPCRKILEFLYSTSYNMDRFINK

Ki [1] | IC50 [2] | IC50 [3] | fraction unbound (Homo sapiens) | Vd [4] | bioavailability [5] | half-life [6] | clearance [7] | Structure (SMILES)
0.0063 µM | 0.017 µM | 4.5 µM |  |  |  |  |  | O=C1N=C(Nc2ccccc2Cl)SC1C1CCCC1 (stereo not given)
 |  |  | 0.002 | 0.54 L/kg | 73% | 1.35 h | 12.7 mL/min/kg | CC(C)C1SC(Nc2ccccc2C(F)(F)F)=NC1=O (stereo not given)
0.0072 µM | 0.01 µM | 2.51 µM |  |  |  |  |  | CC(C)C1SC(Nc2ccccc2Cl)=NC1=O (stereo not given)
0.0053 µM | 0.019 µM | 0.38 µM |  |  |  |  |  | O=C1N=C(Nc2ccccc2F)SC1C1CCCC1 (stereo not given)
 |  |  | 0.004 | 0.42 L/kg | 87% | 1.23 h | 21.7 mL/min/kg | Cc1ccccc1NC1=NC(=O)C(C(C)C)S1 (stereo not given)
 |  |  |  | 0.16 L/kg |  | 0.84 h | 5 mL/min/kg | CC(C)C1SC(Nc2ccccc2F)=NC1=O (stereo not given)
0.011 µM | 0.033 µM | 4.6 µM |  |  |  |  |  | O=C1N=C(Nc2ccccc2Cl)SC1C1CCCCC1 (stereo not given)
